Experimental data as given in US10934263B2, “Charged ion channel blockers and methods for use” (Nocion Therapeutics, Inc., priority 2019, dated 2021).

Tests used:
NaV1.7 = molecular target: T1, NaV1.7 (Homo sapiens, UniProt Q15858); test: Whole cell patch clamp, internal block of NaV1.7 current (compound in internal solution); type: cell-based; details: compound applied internally, manual patch clamp, read-out: Nav1.7 Intracellular Inhibition
T1 construct: expressed in transfected cells; tetracycline-inducible, kept under hygromycin and blasticidin
T1 sequence (Q15858 whole entry): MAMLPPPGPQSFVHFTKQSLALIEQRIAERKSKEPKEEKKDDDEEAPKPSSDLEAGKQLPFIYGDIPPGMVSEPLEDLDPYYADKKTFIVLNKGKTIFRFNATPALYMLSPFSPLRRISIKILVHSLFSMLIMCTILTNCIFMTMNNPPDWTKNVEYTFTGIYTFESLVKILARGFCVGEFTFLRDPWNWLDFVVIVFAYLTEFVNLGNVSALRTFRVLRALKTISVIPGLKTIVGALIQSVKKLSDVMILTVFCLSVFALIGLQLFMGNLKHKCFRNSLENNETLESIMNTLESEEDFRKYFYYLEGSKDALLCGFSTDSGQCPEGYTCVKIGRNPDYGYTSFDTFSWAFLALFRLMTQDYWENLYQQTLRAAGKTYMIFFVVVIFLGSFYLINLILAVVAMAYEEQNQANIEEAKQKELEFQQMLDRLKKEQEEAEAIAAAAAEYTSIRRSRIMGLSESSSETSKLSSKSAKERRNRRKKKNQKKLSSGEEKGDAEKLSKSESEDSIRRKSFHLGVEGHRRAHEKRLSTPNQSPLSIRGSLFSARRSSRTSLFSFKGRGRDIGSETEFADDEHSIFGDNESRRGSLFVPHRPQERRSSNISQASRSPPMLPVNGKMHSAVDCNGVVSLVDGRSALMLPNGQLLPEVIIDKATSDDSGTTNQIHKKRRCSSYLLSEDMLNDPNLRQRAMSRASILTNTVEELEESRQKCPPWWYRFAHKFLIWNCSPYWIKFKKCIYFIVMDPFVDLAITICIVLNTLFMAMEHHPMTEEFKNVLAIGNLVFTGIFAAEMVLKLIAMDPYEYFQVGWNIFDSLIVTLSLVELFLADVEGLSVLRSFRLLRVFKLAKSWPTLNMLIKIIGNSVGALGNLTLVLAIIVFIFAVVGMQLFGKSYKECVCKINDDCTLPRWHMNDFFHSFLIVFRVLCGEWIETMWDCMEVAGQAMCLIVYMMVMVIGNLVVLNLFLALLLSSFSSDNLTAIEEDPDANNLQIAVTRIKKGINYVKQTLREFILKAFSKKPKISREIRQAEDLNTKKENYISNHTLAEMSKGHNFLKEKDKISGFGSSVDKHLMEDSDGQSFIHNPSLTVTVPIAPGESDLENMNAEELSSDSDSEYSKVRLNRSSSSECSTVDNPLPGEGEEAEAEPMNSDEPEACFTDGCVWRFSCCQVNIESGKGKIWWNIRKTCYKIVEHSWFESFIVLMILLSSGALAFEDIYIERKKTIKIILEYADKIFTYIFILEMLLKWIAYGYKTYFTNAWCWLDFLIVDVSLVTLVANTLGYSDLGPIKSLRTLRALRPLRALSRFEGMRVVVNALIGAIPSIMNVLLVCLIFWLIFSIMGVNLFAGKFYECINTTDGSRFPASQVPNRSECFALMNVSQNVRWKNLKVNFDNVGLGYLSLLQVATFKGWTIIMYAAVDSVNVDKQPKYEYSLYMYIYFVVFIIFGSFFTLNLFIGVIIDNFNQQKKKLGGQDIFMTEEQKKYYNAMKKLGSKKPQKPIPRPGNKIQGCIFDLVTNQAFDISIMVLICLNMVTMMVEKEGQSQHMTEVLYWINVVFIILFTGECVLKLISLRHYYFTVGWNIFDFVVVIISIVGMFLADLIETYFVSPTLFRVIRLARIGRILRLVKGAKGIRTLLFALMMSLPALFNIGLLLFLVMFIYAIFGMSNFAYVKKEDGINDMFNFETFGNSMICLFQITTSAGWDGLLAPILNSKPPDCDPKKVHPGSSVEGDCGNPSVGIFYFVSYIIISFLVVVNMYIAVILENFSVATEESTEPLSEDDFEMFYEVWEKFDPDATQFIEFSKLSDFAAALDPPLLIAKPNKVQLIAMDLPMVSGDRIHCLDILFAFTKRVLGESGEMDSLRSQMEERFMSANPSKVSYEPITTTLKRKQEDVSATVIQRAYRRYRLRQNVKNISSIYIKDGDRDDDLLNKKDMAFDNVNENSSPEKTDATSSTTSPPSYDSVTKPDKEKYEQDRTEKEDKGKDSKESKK
Description: Representative compounds of the invention were synthesized according to the described methods and tested for the ability to inhibit voltage-gated sodium channels.
NaV1.7 was expressed upon induction with tetracycline. Cells were cultured in DMEM containing 10% dialyzed Fetal Bovine Serum (VWR, Radnor, Pa.), 1% Glutamax (VWR, Radnor, Pa.), 1% Penicillin-Streptomycin (VWR, Radnor, Pa.), 100 mg/L Hygromycin (Thermo Fisher Scientific, Waltham, Mass. and 5 mg/L Blasticidin (Alfa Aesar, Haverhill, Mass.). Cells were grown and maintained at 37° C. in a humidified environment containing 10% CO2 in air. Cells were detached from the culture flask for passage and harvested using 0.05% Trypsin-EDTA (Thermo Fisher Scientific, Waltham, Mass.). To induce NaV1.7, cells were induced with tetracycline (0.1-1 μg/mL, IBI Scientific, Peosta, Iowa) the day before recording and plated onto 24-well plates. Cells were washed with DPBS (VWR, Radnor, Pa.), trypsinized and then triturated five times in 10 mL of growth media to break apart cell aggregates. For one 24-well plate, 2 mL of cell suspension was mixed with 23 mL of fresh growth media and 0.1-1 μg/mL tetracycline added. 1 ml of mixed media with cells was then added to each well of a 24-well plate, with a 12 mm coverslip already placed in the bottom of the well. Cells were then incubated in 37° C. and 10% CO2 overnight.
The intracellular solution contained the following (in mM) CsCl 135, NaCl 10, EGTA 10, HEPES 10, MgCl2 2, adjusted to pH 7.2 with CsOH. The external solution was a normal Ringer solution containing (in mM) NaCl 155, HEPES 10, glucose 10, KCl 3.5, CaCl2 1.5, MgCl2 1 adjusted to pH 7.4 with NaOH. CsCl is from Alfa Aesar, Haverhill, Mass. All other chemicals are from Sigma-Aldrich, St. Louis, Mo. In order to test the degree of internal block by test compounds the compounds were dissolved in internal solution at the indicated test concentration. […] In order to test the degree of external block by test compounds the compounds were dissolved in external solution at the indicated test concentration.
18-24 hours after cells were induced with tetracycline, coverslips were placed into a chamber filled with Normal Ringer solution at room temperature and the chamber placed on a microscope. Pipettes were pulled from borosilicate glass on a P97 puller (Sutter Instrument, Novato, Calif.) and polished with a MF-830 Microforge (Narishige International USA, Inc, Amityville, N.Y.) to have a resistance of 1.5-2.5 MΩ when filled with CsCl internal solution at room temperature. Healthy cells (those that are round and translucent with no visible blemishes) were chosen for seal formation. A seal was formed between the pipette and the cell, and a brief pulse of suction was used to “break in” and establish the whole-cell configuration. The membrane potential was held at −100 mV before the voltage protocol began. Only cells with series resistance between 1.5-5 MΩ were retained for analysis. The voltage protocol was as follows: Cells were held at −100 mV for 12 ms followed by a hyperpolarizing step to −105 mV for 12 ms to monitor the leak. Cells were then stepped back to −100 mV for 40 ms. Cells were then depolarized to −20 mV for 10 ms and then returned to −100 mV for 26 ms.
Once the recording was started, the voltage protocol was run at 30 second intervals for 5 minutes to get a stable baseline. This was followed by four 30-second periods of 5 Hz stimulation of the same voltage protocol separated by 1 minute of rest which was then followed by 0.33 Hz stimulation after the last train. Currents were recorded using PatchMaster software with Heka EPC10 (HEKA Electronics, Lambrecht, Germany). Only cells with inward current amplitudes at −20 mV between 400 pA and 4 nA were accepted. In addition, cells having leak currents greater than 10% of their current amplitudes were discarded. […]

[1] = PAMPA membrane permeability assay; type: in vitro ADME; details: PAMPA permeability coefficient, GIT lipid, buffer pH 7.4, 4 hours incubation
Description: The PAMPA assay (pION, Inc., Woburn Mass.) was used to determine the ability of compounds of the invention to cross an artificial lipid membrane by passive diffusion. Test compounds were dissolved in DMSO (10 mM) and diluted 200-fold in buffer (pION Inc., pH 7.4) to provide 50 uM stock solutions. Buffer (150 μL) was added to a UV blank plate and stock solutions (150 μL) were transferred to a UV reference plate. The blank and reference spectrum were read using a spectrophotometer. Stock solutions (200 μL) were added to the donor plate of the PAMPA sandwich plate and an accept plate painted with GIT lipid (pION Inc, 5 μL) was placed on top. Buffer (200 μL) was added to the acceptor plate and the PAMPA sandwich plate was incubated for 4 hours. Aliquots (150 μL) from the acceptor plate were added to a UV plate and read as acceptor spectrum. Aliquots (150 μL) of the donor solutions were added to a UV analysis plate and read as donor spectrum. The permeability coefficient of test compounds was calculated using PAMPA Explorer™ software (version 3.5.0.4) based on the AUC of the reference plate, the donor plate, and the acceptor plate.

Structure (SMILES)	inhibition at 10 µM (NaV1.7)	PAMPA (10^−6 cm/s) [1]	inhibition at 32 µM (NaV1.7)
Cc1cccc(C)c1NC(=O)C[n+]1ccn(Cc2ccccc2)c1 [Compound 38]	70 to 95%		
COc1cc(C)c(NC(=O)C[n+]2ccccc2)c(C)c1.[Br-] [Compound 10A, 1-(2-((4-methoxy-2,6-dimethylphenyl)amino)-2-oxoethyl) pyridin-1-ium bromide]		+ (<0.1 10^−6 cm/s)	< 40%
Cc1cccc(C)c1NC(=O)C[n+]1cc2ccccn2c1 [Compound 35]	40 to 70%		
CCC(C(=O)Nc1c(C)cccc1C)[n+]1ccccc1.[Br-] (stereo not shown) [Compound 3A, 1-(1-((2,6-dimethylphenyl)amino)-1-oxobutan-2-yl)pyridin-1-ium bromide]		++ (0.1-2.0 10^−6 cm/s)	70 to 95%
Cc1cccc(C)c1NC(=O)C[n+]1ccn(-c2ccccc2)c1 [Compound 37]	70 to 95%		
Cc1cccc(C)c1NC(=O)C[n+]1c(C)ccc(-c2ccccc2)c1C.[Br-] [Compound 23A]		+ (<0.1 10^−6 cm/s)	> 95%
Cc1cccc(C)c1NC(=O)C[n+]1cccc2ccccc21.[Br-] [Compound 18A]		+ (<0.1 10^−6 cm/s)	> 95%
CCC(C(=O)Nc1c(C)cccc1C)[n+]1ccn(C)c1.[Br-] (stereo not shown) [Compound 4A, 3-(1-((2,6-dimethylphenyl)amino)-1-oxobutan-2-yl)-1-methyl-1H-imidazol-3-ium bromide]		+ (<0.1 10^−6 cm/s)	40 to 70%
Cc1cc(C#N)cc(C)c1NC(=O)C[n+]1ccccc1.[Br-] [Compound 11A, 1-(2-((4-cyano-2,6-dimethylphenyl)amino)-2-oxoethyl) pyridin-1-ium bromide]		+ (<0.1 10^−6 cm/s)	< 40%
Cc1cccc(C)c1NC(=O)C[n+]1ccc(-c2ccccc2)cc1.[Br-] [Compound 14A]		+ (<0.1 10^−6 cm/s)	< 40%
Cc1cccc(C)c1NC(=O)C[n+]1ccn(-c2ccc(Cl)cc2)c1 [Compound 64]		++ (0.1-2.0 10^−6 cm/s)	
Cc1cc(Cl)cc(C)c1NC(=O)C[n+]1ccccc1.[Br-] [Compound 9A, 1-(2-((4-chloro-2,6-dimethylphenyl)amino)-2-oxoethyl) pyridin-1-ium bromide]		+ (<0.1 10^−6 cm/s)	< 40%
Cc1cc(F)cc(C)c1NC(=O)C[n+]1ccccc1.[Br-] [Compound 7A, 1-(2-((4-fluoro-2,6-dimethylphenyl)amino)-2-oxoethyl) pyridin-1-ium bromide]		+ (<0.1 10^−6 cm/s)	< 40%
Cc1cccc(C)c1NC(=O)C[n+]1cccc(C2CCCCC2)c1 [Compound 20A]			70 to 95%
Cc1cc(C)c(NC(=O)C[n+]2ccccc2)c(C)c1.[Br-] [Compound 8A, 1-(2-(mesitylamino)-2-oxoethyl)pyridin-1-ium bromide]		+ (<0.1 10^−6 cm/s)	< 40%
Cc1cccc(C)c1OC(=O)C[n+]1cccn1C1CCCCC1 [Compound 111]	> 95%		

Next, values leading:

inhibition at 10 µM (NaV1.7)	PAMPA (10^−6 cm/s) [1]	inhibition at 32 µM (NaV1.7)	Structure (SMILES)
< 40%			Cc1cccc(C)c1NC(=O)C[n+]1cccc(O)c1 [Compound 42]
70 to 95%			Cc1cccc(C)c1NC(=O)C[n+]1cccc(Cl)c1 [Compound 45]
	+ (<0.1 10^−6 cm/s)	70 to 95%	Cc1cccc(C)c1NC(=O)C[n+]1ccccc1C.[Br-] [Compound 5A, 1-(2-((2,6-dimethylphenyl)amino)-2-oxoethyl)-2-methylpyridin-1-ium bromide]
	++ (0.1-2.0 10^−6 cm/s)	70 to 95%	Cc1cccc(C)c1NC(=O)C[n+]1ccccc1.[Br-] [Compound 1A, 1-(2-((2,6-dimethylphenyl)amino)-2-oxoethyl) pyridin-1-ium bromide]
70 to 95%			Cc1ccc[n+](CC(=O)Nc2c(C)cccc2C)c1 [Compound 39]
< 40%	+ (<0.1 10^−6 cm/s)		CCNC(=O)Cn1cc[n+](CC(=O)Nc2c(C)cccc2C)c1 [Compound 62]
40 to 70%	+++ (2.0-10.010^−6 cm/s)		CCOC(=O)Cn1cc[n+](CC(=O)Nc2c(C)cccc2C)c1 [Compound 60]
70 to 95%			COc1ccc[n+](CC(=O)Nc2c(C)cccc2C)c1 [Compound 43]
70 to 95%			Cc1cccc(C)c1NC(=O)C[n+]1cccc(C#N)c1 [Compound 52]
40 to 70%			CCOC(=O)c1c[n+](CC(=O)Nc2c(C)cccc2C)cn1C [Compound 61]
> 95%	+ (<0.1 10^−6 cm/s)		CC(=O)Nc1ccc[n+](CC(=O)Nc2c(C)cccc2C)c1 [Compound 48]
	++ (0.1-2.0 10^−6 cm/s)		CCNC(=O)Cn1ccc[n+]1CC(=O)Nc1c(C)cccc1C.[Br-] [Compound 30A, 2-(2-((2,6-dimethylphenyl)amino)-2-oxoethyl)-1-(2-(ethylamino)-2-oxoethyl)-1H-pyrazol-2-ium bromide]
		70 to 95%	CCc1cc[n+](CC(=O)Nc2c(C)cccc2C)cc1 [Compound 19A]
40 to 70%	+ (<0.1 10^−6 cm/s)		Cc1cccc(C)c1NC(=O)C[n+]1cccc(C(=O)N(C)C)c1 [Compound 41]
40 to 70%	+ (<0.1 10^−6 cm/s)		CCCCCCn1cc[n+](CC(=O)Nc2c(C)cccc2C)c1 [Compound 63]
	+ (<0.1 10^−6 cm/s)	40 to 70%	Cc1cccc(C)c1NC(=O)C[n+]1ccn(C)c1.[Br-] [Compound 2A, 3-(2-((2,6-dimethylphenyl)amino)-2-oxoethyl)-1-methyl-1H-imidazol-3-ium bromide]
	+ (<0.1 10^−6 cm/s)		Cc1cccc(C)c1NC(=O)C[n+]1cccn1C1CCCCC1.[Br-] [Compound 28A]
	+ (<0.1 10^−6 cm/s)		Cc1cccc(C)c1NC(=O)C[n+]1cccn1CC(C)C.[Br-] [Compound 27A]
70 to 95%			Cc1cccc(C)c1NC(=O)C[n+]1cccc(F)c1 [Compound 44]
40 to 70%	+ (<0.1 10^−6 cm/s)		Cc1cccc(C)c1NC(=O)C[n+]1ccn(C(C)C)c1 [Compound 58]
40 to 70%			Cc1cccc(C)c1NC(=O)C[n+]1ccnc(C)c1C [Compound 55]
70 to 95%			Cc1cccc(C)c1NC(=O)C[n+]1cccc(C(C)C)c1 [Compound 31A]
70 to 95%			CCCn1cc[n+](CC(=O)Nc2c(C)cccc2C)c1 [Compound 57]
